{
  "source": "patent US20220090193A1",
  "about": "“ATTACHING NUCLEOTIDES TO A POLYNUCLEOTIDE WITH A POLYMERASE” (priority 2019, published 2022)",
  "origin": "cited, not measured here",
  "conditions": "amino acid side chain",
  "data": [
    {"smiles": "NCCCC[C@H](N)C(=O)O", "note": "[Lysine]", "values": [
      {"measurement": "pKa", "value": 10.54}
    ]}
  ]
}
